ChEMBL document CHEMBL5356956, “Optimizing and characterizing 4-methyl substituted pyrazol-3-carboxamides leading to the peripheral cannabinoid 1 receptor inverse agonist TM38837” (Bioorg Med Chem Lett, 2024)
Values after ≈ are worked out from the molar mass of the structure shown.

How the values were obtained:
[1] = Lipophilicity, logD of compound by chromatographic analysis; type: physicochemical
[2] = molecular target: T1, Cannabinoid receptor 1 (Homo sapiens, UniProt P21554); assay: Inverse agonist activity at human CB1 receptor expressed in CHO-K1 cell membrane by GTP-gamma-S assay; type: functional, cell membranes
T1 sequence (P21554 whole entry): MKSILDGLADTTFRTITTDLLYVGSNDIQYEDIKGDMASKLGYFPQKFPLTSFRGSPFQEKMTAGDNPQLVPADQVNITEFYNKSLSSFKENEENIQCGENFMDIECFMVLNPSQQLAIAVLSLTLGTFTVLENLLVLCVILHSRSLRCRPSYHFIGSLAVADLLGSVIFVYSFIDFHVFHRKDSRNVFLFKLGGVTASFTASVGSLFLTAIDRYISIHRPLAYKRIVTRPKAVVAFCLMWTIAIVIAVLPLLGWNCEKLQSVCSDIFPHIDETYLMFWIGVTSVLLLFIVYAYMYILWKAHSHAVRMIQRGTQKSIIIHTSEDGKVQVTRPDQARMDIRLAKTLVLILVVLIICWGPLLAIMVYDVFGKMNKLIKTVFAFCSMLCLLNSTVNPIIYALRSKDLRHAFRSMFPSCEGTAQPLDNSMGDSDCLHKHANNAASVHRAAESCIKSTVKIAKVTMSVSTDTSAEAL

[3] = Solubility of compound; type: physicochemical
[4] = Clearance in rat hepatocytes assessed per million cells; type: ADME, cell-based, Hepatocyte
[5] = molecular target: T1, Cannabinoid receptor 1; assay: Inverse agonist activity at human CB1 receptor expressed in African green monkey COS7 cells co-expressing G-protein in presence of CP55940 by IP3 assay; type: functional, cell membranes, Membrane
[6] = Subchronic toxicity in DIO mouse assessed as reduction in body weight at 10 mg/kg, po measured after 7 days; type: organism-based; set-up: scale not given: the % may be the effect or the level left; conditions: in vivo, 168 h, time 7 day
[7] = molecular target: CYP2C9 (Homo sapiens, UniProt P11712); assay: Inhibition of CYP2C9 (unknown origin) at 10 uM relative to control; type: ADME
CYP2C9, sequence (P11712 whole entry): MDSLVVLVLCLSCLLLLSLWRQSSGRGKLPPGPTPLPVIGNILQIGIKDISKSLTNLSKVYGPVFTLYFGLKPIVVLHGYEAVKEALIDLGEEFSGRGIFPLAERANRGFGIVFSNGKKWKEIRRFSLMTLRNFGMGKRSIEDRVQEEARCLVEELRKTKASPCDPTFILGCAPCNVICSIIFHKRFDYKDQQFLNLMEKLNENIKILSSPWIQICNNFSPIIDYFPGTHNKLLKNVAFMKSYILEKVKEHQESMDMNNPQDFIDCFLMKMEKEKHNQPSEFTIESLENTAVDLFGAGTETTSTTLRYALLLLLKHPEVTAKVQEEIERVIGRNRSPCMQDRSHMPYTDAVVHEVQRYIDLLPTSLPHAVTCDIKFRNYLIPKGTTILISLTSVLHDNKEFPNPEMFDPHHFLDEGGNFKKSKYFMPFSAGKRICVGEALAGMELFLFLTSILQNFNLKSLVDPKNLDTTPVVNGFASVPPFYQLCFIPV

[8] = molecular target: T1, Cannabinoid receptor 1; assay: Antagonist activity at human CB1 receptor expressed in CHO-K1 cell membrane in presence of CP55940 by GTP-gamma-S assay; type: functional, cell membranes
[9] = molecular target: Cannabinoid receptor 2 (Homo sapiens, UniProt P34972); assay: Inverse agonist activity at human CB2 receptor expressed in CHO-K1 cell membrane in presence of CP55940 by GTP-gamma-S assay; type: functional, cell membranes
Cannabinoid receptor 2, sequence (P34972 whole entry): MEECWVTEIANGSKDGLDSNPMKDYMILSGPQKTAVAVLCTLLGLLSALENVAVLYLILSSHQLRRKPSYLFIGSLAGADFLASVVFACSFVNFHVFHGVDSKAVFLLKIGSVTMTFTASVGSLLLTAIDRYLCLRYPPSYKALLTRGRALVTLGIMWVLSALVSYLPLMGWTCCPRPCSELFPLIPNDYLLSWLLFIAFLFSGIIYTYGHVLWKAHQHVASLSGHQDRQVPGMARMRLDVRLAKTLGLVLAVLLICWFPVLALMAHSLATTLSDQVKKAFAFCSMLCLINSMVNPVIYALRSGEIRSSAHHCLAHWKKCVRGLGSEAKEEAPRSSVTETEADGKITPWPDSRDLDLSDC

C[C@@H](NC(=O)c1nn(-c2ccccc2Cl)c(-c2ccc(Cl)cc2)c1CC(N)=O)c1ccc(C(F)(F)F)nc1
chromatographic logD [1]: 3.3
IC50 [2]: 0.4 nM
solubility [3]: 21 µM (≈ 11.8 µg/mL)
CLH [4]: 6 µL/min/1e6 cells

NC(=O)Cc1c(C(=O)N2CCC(O)(c3cccc(F)c3)CC2)nn(-c2ccccc2Cl)c1-c1ccc(Cl)cc1
chromatographic logD [1]: 2.8
IC50 [2]: 0.5 nM
solubility [3]: 62 µM (≈ 35.2 µg/mL)
CLH [4]: 16 µL/min/1e6 cells

O=C(c1nn(-c2ccccc2Cl)c(-c2ccc(Cl)cc2)c1Cc1nn[nH]n1)N1CCC(Oc2cccc(F)c2F)CC1
chromatographic logD [1]: 2.5
IC50 [2]: 110 nM
IC50 [5]: 61 nM
solubility [3]: 396 µM (≈ 242 µg/mL)
CLH [4]: 14 µL/min/1e6 cells

O=C(O)Cc1c(C(=O)N2CCC(Oc3ccc(F)c(F)c3)CC2)nn(-c2ccccc2Cl)c1-c1ccc(Cl)cc1
chromatographic logD [1]: 2.9
IC50 [5]: 12 nM
solubility [3]: 500 µM (≈ 293 µg/mL)
Activity [6]: < 2%

N#Cc1cccc(C2(O)CCN(C(=O)c3nn(-c4ccccc4Cl)c(-c4ccc(Cl)cc4)c3CC(N)=O)CC2)c1
chromatographic logD [1]: 2.6
IC50 [2]: 0.4 nM
solubility [3]: 70 µM (≈ 40.2 µg/mL)

O=C(O)Cc1c(C(=O)N2CCC(Oc3cccc(F)c3F)CC2)nn(-c2ccccc2Cl)c1-c1ccc(Cl)cc1
chromatographic logD [1]: 2.5
IC50 [5]: 15 nM
solubility [3]: 500 µM (≈ 293 µg/mL)

NC(=O)Cc1c(C(=O)N2CCC(O)(c3ccccc3F)CC2)nn(-c2ccccc2Cl)c1-c1ccc(Cl)cc1
chromatographic logD [1]: 2.8
IC50 [2]: 0.5 nM
solubility [3]: 66 µM (≈ 37.5 µg/mL)

O=C(c1nn(-c2ccccc2Cl)c(-c2ccc(Cl)cc2)c1Cc1nn[nH]n1)N1CCC(Oc2cc(F)cc(F)c2)CC1
inhibition at 10 µM [7]: 32%
chromatographic logD [1]: 2.6
IC50 [2]: 69 nM
IC50 [5]: 23 nM
solubility [3]: 317 µM (≈ 194 µg/mL)
CLH [4]: 16 µL/min/1e6 cells

O=C(O)Cc1c(C(=O)N2CCC(Oc3cccc(C(F)(F)F)c3)CC2)nn(-c2ccccc2Cl)c1-c1ccc(Cl)cc1
chromatographic logD [1]: 2.7
IC50 [5]: 24 nM
solubility [3]: 500 µM (≈ 309 µg/mL)
CLH [4]: 35 µL/min/1e6 cells

C[C@@H]1CC(O)(c2ccccc2F)C[C@H](C)N1C(=O)c1nn(-c2ccccc2Cl)c(-c2ccc(Cl)cc2)c1CC(N)=O (some centres undefined)
chromatographic logD [1]: 3.6
IC50 [2]: 0.7 nM
solubility [3]: 29 µM (≈ 17.3 µg/mL)

O=C(O)Cc1c(C(=O)N2CCC(c3cccc(F)c3)CC2)nn(-c2ccccc2Cl)c1-c1ccc(Cl)cc1
chromatographic logD [1]: 2.7
IC50 [8]: 8.1 nM
IC50 [2]: 32 nM
IC50 [5]: 2.6 nM
IC50 [9]: > 10000 nM

O=C(O)Cc1c(C(=O)N2CCC(Oc3ccc(Cl)cc3)CC2)nn(-c2ccccc2Cl)c1-c1ccc(Cl)cc1
chromatographic logD [1]: 2.7
IC50 [2]: 30 nM
IC50 [5]: 11 nM
CLH [4]: 7 µL/min/1e6 cells

O=C(c1nn(-c2ccccc2Cl)c(-c2ccc(Cl)cc2)c1Cc1nn[nH]n1)N1CCC(c2ccccc2F)CC1
chromatographic logD [1]: 2.5
IC50 [2]: 130 nM
IC50 [5]: 23 nM
solubility [3]: 474 µM (≈ 273 µg/mL)
CLH [4]: 33 µL/min/1e6 cells

O=C(O)Cc1c(C(=O)N2CCC(Oc3ccc(OC(F)(F)F)cc3)CC2)nn(-c2ccccc2Cl)c1-c1ccc(Cl)cc1
chromatographic logD [1]: 3.2
IC50 [5]: 10 nM
solubility [3]: 176 µM (≈ 112 µg/mL)

O=C(c1nn(-c2ccccc2Cl)c(-c2ccc(Cl)cc2)c1Cc1nn[nH]n1)N1CCC(Oc2ccc(OC(F)(F)F)cc2)CC1
inhibition at 10 µM [7]: 48%
chromatographic logD [1]: 3
IC50 [2]: 64 nM
IC50 [5]: 26 nM
solubility [3]: 115 µM (≈ 75.7 µg/mL)
CLH [4]: 14 µL/min/1e6 cells

C[C@@H]1C[C@](O)(c2cccc(F)c2)CCN1C(=O)c1nn(-c2ccccc2Cl)c(-c2ccc(Cl)cc2)c1CC(N)=O
chromatographic logD [1]: 3
IC50 [2]: 0.4 nM
solubility [3]: 64 µM (≈ 37.2 µg/mL)
CLH [4]: 24 µL/min/1e6 cells

Cc1c(C(=O)NN2CCCCC2)nn(-c2ccc(Cl)cc2Cl)c1-c1ccc(Cl)cc1 [RIMONABANT]
Activity [6]: 14.5%

O=C(O)Cc1c(C(=O)N2CCC(Oc3ccc(C(F)(F)F)cc3)CC2)nn(-c2ccccc2Cl)c1-c1ccc(Cl)cc1
chromatographic logD [1]: 3.1
IC50 [5]: 7 nM
solubility [3]: 374 µM (≈ 231 µg/mL)
CLH [4]: 17 µL/min/1e6 cells

O=C(O)Cc1c(C(=O)N2CCC(Oc3ccc(F)cc3)CC2)nn(-c2ccccc2Cl)c1-c1ccc(Cl)cc1
chromatographic logD [1]: 3.6
IC50 [5]: 6 nM
solubility [3]: 118 µM (≈ 67.1 µg/mL)

CCN1C(=O)OC2(CCN(C(=O)c3nn(-c4ccccc4Cl)c(-c4ccc(Cl)cc4)c3CC(N)=O)CC2)C1=O
chromatographic logD [1]: 2.7
IC50 [2]: 1.3 nM
solubility [3]: 28 µM (≈ 16 µg/mL)
CLH [4]: 21 µL/min/1e6 cells

O=C(O)Cc1c(C(=O)N2CCC(Oc3cc(F)cc(F)c3)CC2)nn(-c2ccccc2Cl)c1-c1ccc(Cl)cc1
chromatographic logD [1]: 3.2
IC50 [5]: 8 nM
solubility [3]: 171 µM (≈ 100 µg/mL)

N#Cc1cccc(OC2CCN(C(=O)c3nn(-c4ccccc4Cl)c(-c4ccc(Cl)cc4)c3CC(=O)O)CC2)c1
chromatographic logD [1]: 3.3
IC50 [5]: 53 nM
solubility [3]: 107 µM (≈ 61.6 µg/mL)
CLH [4]: 26 µL/min/1e6 cells

CC(=O)N1CCC(NC(=O)c2nn(-c3ccccc3Cl)c(-c3ccc(Cl)cc3)c2CC(N)=O)CC1
chromatographic logD [1]: 1.8
IC50 [2]: 11 nM
solubility [3]: 51 µM (≈ 26.2 µg/mL)
CLH [4]: 4 µL/min/1e6 cells

N#Cc1ccc(CNC(=O)c2nn(-c3ccccc3Cl)c(-c3ccc(Cl)cc3)c2CC(N)=O)cc1
chromatographic logD [1]: 2.9
IC50 [2]: 0.3 nM
solubility [3]: 16 µM (≈ 8.07 µg/mL)

CS(=O)(=O)N1CCC(NC(=O)c2nn(-c3ccccc3Cl)c(-c3ccc(Cl)cc3)c2CC(N)=O)CC1
chromatographic logD [1]: 2.4
IC50 [2]: 9.5 nM
solubility [3]: 61 µM (≈ 33.6 µg/mL)
CLH [4]: 8 µL/min/1e6 cells

O=C(c1nn(-c2ccccc2Cl)c(-c2ccc(Cl)cc2)c1Cc1nn[nH]n1)N1CCC(Oc2cccc(F)c2)CC1
inhibition at 10 µM [7]: 14%
chromatographic logD [1]: 2.4
IC50 [2]: 130 nM
IC50 [5]: 33 nM
solubility [3]: 500 µM (≈ 296 µg/mL)
CLH [4]: 45 µL/min/1e6 cells

O=C(c1nn(-c2ccccc2Cl)c(-c2ccc(Cl)cc2)c1Cc1nn[nH]n1)N1CCC(Oc2ccc(C(F)(F)F)cc2)CC1
chromatographic logD [1]: 2.9
IC50 [2]: 120 nM
IC50 [5]: 23 nM
solubility [3]: 140 µM (≈ 89.9 µg/mL)
CLH [4]: 12 µL/min/1e6 cells

N=C(N)Cc1c(C(=O)Nc2ccc(F)cc2)nn(-c2ccccc2Cl)c1-c1ccc(Cl)cc1
chromatographic logD [1]: 2.5
IC50 [9]: > 10000 nM

N#Cc1ccc(C2(O)CCN(C(=O)c3nn(-c4ccccc4Cl)c(-c4ccc(Cl)cc4)c3CC(N)=O)CC2)cc1
chromatographic logD [1]: 2.5
IC50 [2]: 0.7 nM
solubility [3]: 73 µM (≈ 41.9 µg/mL)

O=C(O)Cc1c(C(=O)N2CCC(Oc3cccc(Cl)c3)CC2)nn(-c2ccccc2Cl)c1-c1ccc(Cl)cc1
chromatographic logD [1]: 2.8
IC50 [2]: 51 nM
IC50 [5]: 10 nM
CLH [4]: 32 µL/min/1e6 cells

CC(C)c1noc(C2(O)CCN(C(=O)c3nn(-c4ccccc4Cl)c(-c4ccc(Cl)cc4)c3CC(N)=O)CC2)n1
chromatographic logD [1]: 3.2
IC50 [2]: 0.6 nM
solubility [3]: 4 µM (≈ 2.33 µg/mL)
CLH [4]: 65 µL/min/1e6 cells

C[C@@H](NC(=O)c1nn(-c2ccccc2Cl)c(-c2ccc(Cl)cc2)c1Cc1nn[nH]n1)c1ccc(F)c(Cl)c1
chromatographic logD [1]: 2.8
IC50 [2]: 63 nM
IC50 [5]: 32 nM
Activity [6]: 2.4%

O=C(O)Cc1c(C(=O)N2CCC(Oc3cccc(F)c3)CC2)nn(-c2ccccc2Cl)c1-c1ccc(Cl)cc1
chromatographic logD [1]: 3.3
IC50 [5]: 15 nM
solubility [3]: 155 µM (≈ 88.1 µg/mL)
Activity [6]: < 2%

C[C@@H](NC(=O)c1nn(-c2ccccc2Cl)c(-c2ccc(Cl)cc2)c1Cc1nnn[nH]1)c1cccc(F)c1
chromatographic logD [1]: 2.1
IC50 [2]: 86 nM
IC50 [5]: 64 nM
Activity [6]: 5.2%

O=C(c1nn(-c2ccccc2Cl)c(-c2ccc(Cl)cc2)c1Cc1nn[nH]n1)N1CCC(Oc2ccc(F)c(F)c2)CC1
inhibition at 10 µM [7]: 0%
chromatographic logD [1]: 2.5
IC50 [2]: 80 nM
IC50 [5]: 35 nM
solubility [3]: 421 µM (≈ 257 µg/mL)
CLH [4]: 45 µL/min/1e6 cells
Activity [6]: < 2%

O=C(c1nn(-c2ccccc2Cl)c(-c2ccc(Cl)cc2)c1Cc1nn[nH]n1)N1CCC(Oc2cccc(Cl)c2)CC1
inhibition at 10 µM [7]: 35%
chromatographic logD [1]: 2.7
IC50 [2]: 95 nM
IC50 [5]: 24 nM
solubility [3]: 201 µM (≈ 122 µg/mL)
CLH [4]: 15 µL/min/1e6 cells

NC(=O)Cc1c(C(=O)N2CCC(Oc3cccc(F)c3)CC2)nn(-c2ccccc2Cl)c1-c1ccc(Cl)cc1
chromatographic logD [1]: 3.7
IC50 [2]: 0.3 nM
solubility [3]: 9 µM (≈ 5.11 µg/mL)
CLH [4]: 48 µL/min/1e6 cells

N=C(Cc1c(C(=O)NN2CCCCC2)nn(-c2ccccc2Cl)c1-c1ccc(Cl)cc1)NO
chromatographic logD [1]: 2.9

CC(C)S(=O)(=O)N1CCC(NC(=O)c2nn(-c3ccccc3Cl)c(-c3ccc(Cl)cc3)c2CC(N)=O)CC1
chromatographic logD [1]: 2.8
IC50 [2]: 1.9 nM
solubility [3]: 33 µM (≈ 19.1 µg/mL)
CLH [4]: 17 µL/min/1e6 cells

O=C(c1nn(-c2ccccc2Cl)c(-c2ccc(Cl)cc2)c1Cc1nn[nH]n1)N1CCC(Oc2ccc(F)cc2)CC1
chromatographic logD [1]: 2.4
IC50 [2]: 170 nM
IC50 [5]: 41 nM
solubility [3]: 500 µM (≈ 296 µg/mL)
CLH [4]: 13 µL/min/1e6 cells

O=C(O)Cc1c(C(=O)N2CCC(Oc3ccc(Cl)cc3F)CC2)nn(-c2ccccc2Cl)c1-c1ccc(Cl)cc1
chromatographic logD [1]: 3.4
IC50 [5]: 8 nM
solubility [3]: 83 µM (≈ 50 µg/mL)
CLH [4]: 28 µL/min/1e6 cells

O=C(c1nn(-c2ccccc2Cl)c(-c2ccc(Cl)cc2)c1Cc1nn[nH]n1)N1CCC(Oc2ccc(Cl)cc2)CC1
inhibition at 10 µM [7]: 38%
chromatographic logD [1]: 2.6
IC50 [2]: 47 nM
IC50 [5]: 30 nM
solubility [3]: 204 µM (≈ 124 µg/mL)
CLH [4]: 77 µL/min/1e6 cells

C[C@@H](NC(=O)c1nn(-c2ccccc2Cl)c(-c2ccc(Cl)cc2)c1Cc1nn[nH]n1)c1ccc(Br)cc1
chromatographic logD [1]: 2.4
IC50 [5]: 72 nM

C[C@@H]1CC(O)(c2cccc(F)c2)C[C@H](C)N1C(=O)c1nn(-c2ccccc2Cl)c(-c2ccc(Cl)cc2)c1CC(N)=O (some centres undefined)
chromatographic logD [1]: 3.5
IC50 [2]: 2.2 nM
solubility [3]: 79 µM (≈ 47 µg/mL)
